Source: PMC6013238, “Development of novel NEMO-binding domain mimetics for inhibiting IKK/NF-κB activation” (PLoS Biology, 2018)
“And” between values parts separate entries of the source, which are not always exact repeats. Equal values may be shown once. Read-outs that look alike come from different tables or passages of the source.

What was measured:
Assay type in all cases: in vivo, mouse
[1] = Serum AST, ALT and ALP of chronically treated mdx mice; conditions: for Liver toxicity (serum AST, ALT, ALP): chronically treated mdx mice, 30 mg/kg; for ALP Final Concentration / ALT Final Concentration / AST Final Concentration: serum, individual mouse (FigS3B)
[2] = Plasma and tissue concentrations 2 h after a single i.p. injection; conditions: for concentration at 2 h: male, C57BL/6J, mouse, ip, 10 mg/kg
Protocol: To determine the stability of the NBD mimetics in vivo, their levels were measured in the plasma of mice 2 h post i.p. injection with 10 mg/kg of each compound. The concentration of SR12460 was very high in plasma (>6.5 μg/mL; 20 μM), while levels in brain, muscle, spleen, and liver were lower. SR12343 and SR12454 had lower plasma concentrations, with SR12343 showing a higher level in liver and SR12454 showing higher concentrations in muscle and spleen. The level of SR11481 was undetectable in plasma and tissues (Fig 6A).
Fig 6 Newly identified NBD mimetics suppress LPS-induced acute inflammation in vivo. (A) The bioavailability property of SR12460, SR12343, SR12454, and SR11481. Concentrations of NBD mimetics were determined in plasma, brain, muscle, spleen, and liver 2 h post a single i.p. injection of 10 mg/kg of drugs; n = 3 per group. (B) Shown is the model to induce LPS-mediated acute inflammation and the treatment regimen with NBD mimetics. Mouse image via http://www.clker.com/clipart-mice-blank.html (copyright-free). (C) NBD mimetics suppressed LPS-induced acute inflammation in liver and lung by down-regulating NF-κB target gene expression. Vehicle, SR12343, SR12460, and 8K-NBD peptide were dosed at 10 mg/kg 30 min prior to the LPS treatment. Acute inflammation was induced by i.p. injection of 10 mg/kg LPS. Lung and liver were collected 2–4 h post injection, and mRNA was extracted for qRT-PCR analysis. (D, E) Western blot analysis was performed to probe for the expression of p-IκBα and COX-2 at protein level in liver and lung tissues. (F) Serum levels of IL-6 were determine by ELISA. n = 3–8 each group. *P < 0.05, **P < 0.01. Underlying data can be found in S1 Data. COX-2, cyclooxygenase 2; IL-6, interleukin 6; i.p., intraperitoneal; LPS, lipopolysaccharide; NBD, NEMO-binding domain; n.d., nondetectable; NEMO, NF-κB essential modulator; NF-κB, nuclear factor κB; qRT-PCR, quantitative real-time polymerase chain reaction. TEXT PRINTED IN THE PICTURE: (A) SR11481: Concentration (ng/ml): n.d. (plasma)
The pharmacokinetic profile of the NBD mimetics was determined in male C57BL/6J mice (n = 3). The drugs were formulated in 10:10:80 of DMSO:Tween 80:water and were dosed by i.p. injection at a final dose of 10 mg/kg. Blood, brain, muscle, spleen, and liver were collected 2 h post treatment and were analyzed by mass spectrometry by following a protocol previously described.

[3] = tested on: mdx mice; assay: Chronic treatment of mdx mice, laminin stain and minimum Feret diameter of myofibers; conditions: Fig 7F, TA muscle, 4 wk treatment, single mice
Excerpt: Fig 7 NBD mimetics improve muscular pathology and grip strength in mdx mice. (A) Shown is the treatment regimen with NBD mimetics in mdx mice. (B) Hematoxylin–eosin staining of TA muscle from 7-wk-old, treated or untreated mdx mice. Images were taken at magnification of 20×. Representative images were shown for each treatment group. […] (E) TA muscle from 7-wk-old, treated or untreated mdx mice was stained with laminin by IHC to outline myofibers. Overall images of TA muscle were shown on the left side, and the inset panel images were shown on the right side. (F) Quantitation of minimum Feret diameter in centrally and noncentrally nucleated myofibers. (G) Forelimb force determined by grip strength test. Five-wk-old (2 wk post treatment) and 7-wk-old (4 wk post treatment) mdx mice, treated or untreated, were tested for forelimb grip strength. Five sequential tests were performed, and the force was normalized to body weight. Data were shown as mean +/− SEM. Dosages used are as follows: SR12343 (30 mg/kg), SR12460 (30 mg/kg), and 8K-NBD peptide (10 mg/kg). n = 6–7 each group. *P < 0.05, **P < 0.01. Underlying data can be found in S1 Data. eMyHC, embryonic myosin heavy chain; IHC, immunohistochemistry; NBD, NEMO-binding domain; NEMO, NF-κB essential modulator; Pax7, paired box protein 7; qRT-PCR, quantitative real-time polymerase chain reaction; TA, tibialis anterior.
To determine whether SR12343 and SR12460 improve muscle pathology, TA muscle was stained with hematoxylin–eosin to assess inflammatory infiltration, necrosis, central nucleation, and fibrosis. […] In addition, Masson trichrome stain was conducted to further measure muscle fibrosis. Chronic treatment with SR12343 reduced muscle fibrosis (blue) in diaphragm and TA muscle tissues in comparison to control group (Fig 8A & 8B). To further quantitate the extent of inflammation in mdx muscle tissues, diaphragm and TA muscle were immunostained for cluster of differentiation 68 (CD68), a macrophage marker. Treatment with SR12343 reduced the number of CD68^+ cells by almost 50% per myofiber in both diaphragm and TA tissues (Fig 8A & 8B). […] To quantify the average fiber size in an unbiased way, TA muscle was stained with laminin to outline myofibers, and Feret diameter of all myocytes was quantitated in a whole muscle section.
To ensure rigorous quantitation of average fiber size, TA muscle was stained with laminin to outline myofibers. […] Centrally nucleated fibers were determined by first eroding the binary mask of the muscle fibers so that only the central portion of each fiber was present. […] Using the original muscle fiber mask, Feret diameters for centrally nucleated and noncentrally nucleated fibers were then measured.

[4] = 2 h post single i.p. 10 mg/kg, single mice
[5] = plasma, 2 h post single i.p. 10 mg/kg, single mice, read-out: Concentration in plasma
[6] = spleen, 2 h post single i.p. 10 mg/kg, single mice, read-out: Concentration in spleen

SMILES	Liver toxicity (serum AST, ALT, ALP) [1]	ALP Final Concentration [1]	ALT Final Concentration [1]	AST Final Concentration [1]	Concentration in brain [2, 4]	Concentration in plasma [2, 4]	Concentration in spleen [2, 4]	concentration at 2 h ([2]; brain, 2 h post single i.p. 10 mg/kg, single mice, read-out: Concentration in brain)	concentration at 2 h [2, 5]	concentration at 2 h [2, 6]	Feret 90's of non-centrally nucleated fibers [3]	Feret's of centrally nucleated fibers [3]	Concentration in liver [2, 4]	Concentration in muscle [2, 4]	concentration at 2 h ([2]; liver, 2 h post single i.p. 10 mg/kg, single mice, read-out: Concentration in liver)	concentration at 2 h ([2]; muscle, 2 h post single i.p. 10 mg/kg, single mice, read-out: Concentration in muscle)	concentration at 2 h ([2]; plasma, 2 h post i.p. 10 mg/kg, read-out: Concentration in plasma)
O=C(CNc1ccc(Cl)cn1)NCCc1cccc(Br)c1 [SR12343]	no overt liver toxicity	170 U/L and 225 U/L and 145 U/L	125 U/L and 160 U/L and 150 U/L and 260 U/L	775 U/L and 1030 U/L and 875 U/L and 1560 U/L	45.7 ng/mL and 29.2 ng/mL	14.7 ng/mL and 8.4 ng/mL	26.6 ng/mL and 25.1 ng/mL	31.8 ng/mL	14.3 ng/mL	24.7 ng/mL	30.77 and 40.26 and 44.29 and 46.1	29.8 and 35.12 and 37.33 and 39.93					
O=C(CNCCc1cc(F)cc(F)c1)Nc1ccc(Cl)cn1 [SR12460]	no overt liver toxicity	195 U/L and 170 U/L and 160 U/L	215 U/L and 185 U/L	1245 U/L and 1330 U/L and 1415 U/L		5470 ng/mL and 7970 ng/mL	905 ng/mL and 1250 ng/mL		6520 ng/mL	930 ng/mL	42.38 and 57.7 and 50.27 and 41.83 and 37.95	36.18 and 50.79 and 43.17 and 46.06 and 34.34	265 ng/mL and 390 ng/mL	602 ng/mL and 852 ng/mL	442 ng/mL	846 ng/mL	> 6500 ng/mL and 20 µM
